Laboratory results taken from ChEMBL document CHEMBL5137008, “Recent advances of antitumor shikonin/alkannin derivatives: A comprehensive overview focusing on structural classification, synthetic approaches, and mechanisms of action” (Eur J Med Chem, 2022).

Assays:
[1] = tested on: Ca9-22; assay: Cytotoxicity against human Ca9-22 cells assessed as reduction in cell viability incubated for 24 hrs by MTT assay; assay type: functional, cell-based; conditions: Ca9-22, 24 h
[2] = tested on: Ca9-22; assay: Cytotoxicity against human Ca9-22 cells assessed as reduction in cell viability incubated for 48 hrs by MTT assay; assay type: functional, cell-based; conditions: Ca9-22, 48 h
[3] = tested on: B16-F10; assay: Anticancer activity against mouse B16-F10 cells assessed as inhibition of cell proliferation incubated for 48 hrs by MTT assay; assay type: functional, cell-based; conditions: B16-F10, 48 h
[4] = tested on: MG-63; assay: Anticancer activity against human MG-63 cells assessed as inhibition of cell proliferation incubated for 48 hrs by MTT assay; assay type: functional, cell-based; conditions: MG-63, 48 h
[5] = tested on: A549; assay: Anticancer activity against human A549 cells assessed as inhibition of cell proliferation incubated for 48 hrs by MTT assay; assay type: functional, cell-based; conditions: A549, 48 h
[6] = Inhibition of bovine brain tubulin polymerization preincubated with compound followed by GTP addition and measured after 20 mins by turbidimetry-based spectrophotometric method; set-up: species or system Bos taurus
[7] = tested on: SW872; assay: Anticancer activity against human SW872 cells assessed as inhibition of cell growth incubated for 72 hrs by MTT assay; assay type: functional, cell-based; conditions: SW872, 72 h
[8] = tested on: A549; assay: Antiproliferative activity against human A549 cells assessed as reduction in cell viability incubated for 24 hrs by MTT assay; assay type: functional, cell-based; conditions: A549, 24 h
[9] = tested on: HepG2; assay: Antiproliferative activity against human HepG2 cells assessed as reduction in cell viability incubated for 24 hrs by MTT assay; assay type: functional, cell-based; conditions: HepG2, 24 h
[10] = Cytotoxicity against human L02 cells assessed as reduction in cell viability incubated for 24 hrs by MTT assay; assay type: toxicity, cell-based
[11] = Anticancer activity against human A875 cells assessed as inhibition of cell growth incubated for 24 hrs by MTT assay; assay type: functional, cell-based; conditions: A875, 24 h
[12] = tested on: HepG2; assay: Anticancer activity against human HepG2 cells assessed as inhibition of cell growth incubated for 24 hrs by MTT assay; assay type: functional, cell-based; conditions: HepG2, 24 h
[13] = Antitubulin activity against bovine brain tubulin polymerization preincubated with compound followed by GTP addition by turbidimetry-based spectrophotometric method; set-up: species or system Bos taurus
[14] = tested on: A549; assay: Antiproliferative activity against human A549 cells assessed as inhibition of cell proliferation incubated for 20 hrs by MTT assay; assay type: functional, cell-based; conditions: A549, 20 h
[15] = tested on: L02; assay: Antiproliferative activity against human L02 cells assessed as inhibition of cell proliferation incubated for 20 hrs by MTT assay; assay type: functional, cell-based; conditions: L02, 20 h
[16] = tested on: HepG2; assay: Antiproliferative activity against human HepG2 cells assessed as inhibition of cell proliferation incubated for 24 hrs by MTT assay; assay type: functional, cell-based; conditions: HepG2, 24 h
[17] = tested on: HeLa; assay: Antiproliferative activity against human HeLa cells assessed as inhibition of cell proliferation incubated for 24 hrs by MTT assay; assay type: functional, cell-based
[18] = tested on: MCF7; assay: Antiproliferative activity against human MCF7 cells assessed as inhibition of cell proliferation incubated for 24 hrs by MTT assay; assay type: functional, cell-based; conditions: MCF7, 24 h
[19] = tested on: SCC-4; assay: Antiproliferative activity against human SCC-4 cells assessed as inhibition of cell proliferation incubated for 24 hrs by MTT assay; assay type: functional, cell-based; conditions: SCC-4, 24 h
[20] = Cytotoxicity against African green monkey VERO cells assessed as inhibition of cell growth incubated for 24 hrs by MTT assay; assay type: toxicity, cell-based, Chlorocebus sabaeus
[21] = tested on: MCF7; assay: Antiproliferative activity against human MCF7 cells assessed as inhibition of cell growth incubated for 24 hrs in presence of foetal bovine serum by MTT assay; assay type: functional, cell-based; conditions: MCF7, 24 h
[22] = tested on: MDA-MB-231; assay: Antiproliferative activity against human MDA-MB-231 cells assessed as inhibition of cell growth incubated for 24 hrs in presence of foetal bovine serum by MTT assay; assay type: functional, cell-based; conditions: MDA-MB-231, 24 h
[23] = tested on: MDA-MB-468; assay: Antiproliferative activity against human MDA-MB-468 cells assessed as inhibition of cell growth incubated for 24 hrs in presence of foetal bovine serum by MTT assay; assay type: functional, cell-based; conditions: MDA-MB-468, 24 h
[24] = Cytotoxicity against human MCF-10A assessed as inhibition of cell growth incubated for 24 hrs in presence of foetal bovine serum by MTT assay; assay type: toxicity, cell-based; conditions: MCF-10A cells
[25] = tested on: A549; assay: Antiproliferative activity against human A549 cells assessed as inhibition of cell growth incubated for 24 hrs in presence of foetal bovine serum by MTT assay; assay type: functional, cell-based; conditions: A549, 24 h
[26] = Cytotoxicity against human L02 cells assessed as inhibition of cell growth incubated for 24 hrs in presence of foetal bovine serum by MTT assay; assay type: toxicity, cell-based
[27] = tested on: BT-474; assay: Antiproliferative activity against human BT-474 cells assessed as inhibition of cell growth incubated for 24 hrs in presence of foetal bovine serum by MTT assay; assay type: functional, cell-based; conditions: BT-474, 24 h
[28] = tested on: MDA-MB-231; assay: Antiproliferative activity against human MDA-MB-231 cells assessed as inhibition of cell growth incubated for 24 hrs by MTT assay; assay type: functional, cell-based; conditions: MDA-MB-231, 24 h
[29] = tested on: MCF7; assay: Antiproliferative activity against human MCF7 cells assessed as inhibition of cell growth incubated for 24 hrs by MTT assay; assay type: functional, cell-based; conditions: MCF7, 24 h
[30] = tested on: MDA-MB-231; assay: Antiproliferative activity against human MDA-MB-231 cells assessed as inhibition of cell proliferation incubated for 24 hrs by CCK-8 assay; assay type: functional, cell-based; conditions: MDA-MB-231, 24 h
[31] = tested on: MCF7; assay: Antiproliferative activity against human MCF7 cells assessed as inhibition of cell proliferation incubated for 24 hrs by CCK-8 assay; assay type: functional, cell-based; conditions: MCF7, 24 h
[32] = tested on: A549; assay: Antiproliferative activity against human A549 cells assessed as inhibition of cell proliferation incubated for 24 hrs by CCK-8 assay; assay type: functional, cell-based; conditions: A549, 24 h
[33] = tested on: HCT-8; assay: Antiproliferative activity against human HCT-8 cells assessed as inhibition of cell proliferation incubated for 24 hrs by CCK-8 assay; assay type: functional, cell-based; conditions: HCT-8, 24 h
[34] = tested on: HeLa; assay: Antiproliferative activity against human HeLa cells assessed as inhibition of cell proliferation incubated for 24 hrs by CCK-8 assay; assay type: functional, cell-based
[35] = Cytotoxicity against human MCF-10A cells assessed as inhibition of cell proliferation incubated for 24 hrs by CCK-8 assay; assay type: toxicity, cell-based
[36] = tested on: HepG2; assay: Antiproliferative activity against human HepG2 cells incubated for 24 hrs by MTT assay; assay type: functional, cell-based; conditions: HepG2, 24 h
[37] = tested on: MDA-MB-231; assay: Antiproliferative activity against human MDA-MB-231 cells incubated for 24 hrs by MTT assay; assay type: functional, cell-based; conditions: MDA-MB-231, 24 h
[38] = Cytotoxicity against human L02 incubated for 24 hrs by MTT assay; assay type: toxicity, cell-based; conditions: L02 cells
[39] = Cytotoxicity against African green monkey Vero cells incubated for 24 hrs by MTT assay; assay type: toxicity, cell-based, Chlorocebus sabaeus
[40] = Cytotoxicity against human MCF-10A incubated for 24 hrs by MTT assay; assay type: toxicity, cell-based; conditions: MCF-10A cells
[41] = Cytotoxicity against human skin fibroblast cells assessed as reduction in cell viability incubated for 72 hrs by MTT assay; assay type: toxicity, cell-based
[42] = tested on: MCF7; assay: Anticancer activity against human MCF7 cells incubated for 72 hrs by MTT assay; assay type: functional, cell-based; conditions: MCF7, 72 h
[43] = tested on: MGC-803; assay: Anticancer activity against human MGC-803 cells incubated for 72 hrs by MTT assay; assay type: functional, cell-based; conditions: MGC-803, 72 h
[44] = tested on: Fibroblast; assay: Cytotoxicity against human skin fibroblast cells incubated for 72 hrs by MTT assay; assay type: functional, cell-based
[45] = tested on: SK-BR-3; assay: Antiproliferative activity against human SK-BR-3 cells assessed as inhibition of cell growth incubated for 24 hrs in presence of foetal bovine serum by MTT assay; assay type: functional, cell-based; conditions: SK-BR-3, 24 h
[46] = tested on: HeLa; assay: cells; conditions: Homo sapiens, 24 h

- IC50 [3]: 3.72 µM
- IC50 [5]: 5.06 µM
- IC50 [6]: 30.2 µM
- IC50 [7]: 0.76 µM
- IC50 [8]: 1.71 µM
- IC50 [9]: 1.29 µM
- IC50 [12]: 0.42 µM
- IC50 [13]: 16.8 µM
- IC50 [14]: 2.51 µM
- IC50 [16]: 9.36 µM
- IC50 [17]: 5.75 µM
- IC50 [18]: 4.99 µM
- IC50 [21]: 4.57 µM
- IC50 [22]: 2.88 µM
- IC50 [23]: 3.28 µM
- IC50 [25]: 11.7 µM
- IC50 [27]: 5.74 µM
- IC50 [28]: 8.98 µM
- IC50 [29]: 7.75 µM
- IC50 [30]: 7.62 µM
- IC50 [31]: 9.32 µM
- IC50 [32]: 7.73 µM
- IC50 [33]: 9.2 µM
- IC50 [34]: 11.1 µM
- IC50 [36]: 2.73 µM
- IC50 [37]: 108 µM
- IC50 [42]: 2.11 µM
- IC50 [43]: 1.28 µM
- IC50 [45]: 3.75 µM
- IC50 [46]: 4.8 µM
SMILES: CC(C)=CC[C@@H](O)C1=CC(=O)c2c(O)ccc(O)c2C1=O [SHIKONIN]
- IC50 [1]: 13.6 µM
- IC50 [2]: 12.8 µM
- IC50 [4]: 5.67 µM
- IC50 at 24 h [10]: 10.5 µM
- IC50 [11]: 0.46 µM
- IC50 [15]: 65.3 µM
- IC50 [19]: 10.1 µM
- IC50 at 24 h [20]: 6.76 µM
- IC50 at 24 h [24]: 23.5 µM
- IC50 at 24 h [26]: 10.5 µM
- IC50 at 24 h [35]: 20.9 µM
- IC50 at 24 h [38]: 83.8 µM
- IC50 at 24 h [39]: 6.76 µM
- IC50 at 24 h [40]: 93.4 µM
- IC50 at 72 h [41]: 1.2 µM
- IC50 [44]: 1.24 µM
